One test concerns the target PIM-1 (Homo sapiens (Human), UniProt P11309). Briefly: Luminometric kinase assay for PIM1 kinase (Kinase-Glo). The conditions noted are these: 1 μM ATP, 25 min at RT. The format is biochemical. How it is done: Kinase assay was performed using luminescent Kinase-Glo® (Promega) system. The Kinase-Glo® Luminescent Kinase Assay Platform provides a homogeneous, high-throughput screening method for measuring kinase activity by quantifying the amount of ATP remaining in solution following a kinase reaction. The luminescent signal is correlated with the amount of ATP present and is inversely correlated with the kinase activity. Appropriate amounts of both kinase and substrate were mixed in 96-well, white wall plate in the reaction buffer (8 mM MOPS/NaOH, pH7.0, 0.2 mM EDTA, 2 mM MgCl2). Tested compounds were diluted in DMSO and serial dilutions starting with 1 μM were added to the palates. Reaction was initiated by adding 1 μM of ATP solution and conducted for 25 min. at RT. Luminescent signal was detected by adding Kinase-Glo® reagent and measured using a microplate spectrophotometer (Synergy 2 multi-mode microplate reader (BioTek)). IC50 values were obtained by fitting sigmoidal dose-response curve (variable slope) using GraphPad Prism software.

The test system of test [1] is human myelomonocytic, biphenotypic leukemia MV4-11 cells. Briefly: Growth inhibition test (MTS) on MV4-11 cells. Format: cell-based. The conditions noted are these: Homo sapiens, MV4-11, 72 hours, read-out: MV-4-11 ED50. The method, then:
(§1) Ten thousand cells of human myelomonocytic, biphenotypic leukemia MV4-11 were inoculated into each well of a 96-well microplate (manufactured by Corning Corp.) using Iscove's MDM medium (culture medium) containing 10% fetal calf serum (FCS). Next day, a dimethyl sulfoxide (DMSO) solution of each test compound prepared in a concentration of 10 mmol/L was further diluted with culture medium to the desired concentrations (0.1, 0.5, 1, 2.5, 5 and 10 micromol/L), and the diluted solution was added to each well. The individual wells were further cultured in 5% carbon dioxide at 37° C. for 72 hours. After completion of the culture, 10 μl MTS (3-(4,5-Dimethyl-2-thiazolyl)-5-(carboxymethoxyphenyl)-2-(4-sulfophenyl)-2H-tetrazolium, inner salt assay (CellTiter96® AQueous One Solution Cell Proliferation Assay, Promega) was added to each well, and culturing was performed in 5% carbon dioxide at 37° C. for 2 hours. Using a microplate spectrophotometer (Synergy 2 multi-mode microplate reader (BioTek)), the absorbance of each well was measured at 490 nm. The value for cells not incorporated with a test compound was designated as 100%. By comparing these values with the absorbance difference obtained at the well in which each test compound was added, the cell viability (% viability) after treatment with the test compound was calculated.

Test [2] relates to human hepatoma HepG2 cells. Briefly: Growth inhibition test (MTS) on HepG2 cells. Format: cell-based. The conditions noted are these: 72 hours, read-out: HepG2 ED50. How it is done: as §1, with “Two” for “Ten”, “hepatoma HepG2” for “myelomonocytic, biphenotypic leukemia MV4-11”, “DMEM” for “Iscove's MDM”
The test system of test [3] is human prostate adenocarcinoma PC3 cells. Briefly: Growth inhibition test (MTS) on PC3 cells. The format is cell-based. The conditions noted are these: Homo sapiens, PC-3, 72 hours, read-out: PC-3 ED50.
Excerpt: as §1, with “Two” for “Ten”, “prostate adenocarcinoma PC3” for “myelomonocytic, biphenotypic leukemia MV4-11”, “Corp.), and” for “Corp.)”, “F12K (Ham's F12:[…] 1:1)” for “Iscove's MDM”

Each structure is given as a SMILES string.

PIM-1, sequence (P11309 whole entry): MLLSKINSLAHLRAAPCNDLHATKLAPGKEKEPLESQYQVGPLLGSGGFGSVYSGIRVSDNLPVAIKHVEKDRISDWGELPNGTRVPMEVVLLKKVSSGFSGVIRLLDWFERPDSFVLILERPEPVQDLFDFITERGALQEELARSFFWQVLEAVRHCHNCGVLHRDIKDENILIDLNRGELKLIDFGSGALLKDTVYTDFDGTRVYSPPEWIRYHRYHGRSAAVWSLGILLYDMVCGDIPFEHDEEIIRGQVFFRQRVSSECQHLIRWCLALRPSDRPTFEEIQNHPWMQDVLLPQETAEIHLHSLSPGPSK

For the molecule `N[C@@H]1CC=CC[C@H]1Nc1nc2c(Br)c(Br)c(Br)c(Br)c2[nH]1` (relative stereo) [Compound 331, Trans N1-(4,5,6,7-tetrabromo-1H-benzo[d]imidazol-2-yl)cyclohex-4-ene-1,2-diamine], the IC50 at PIM-1 was determined as 14.8 nM; in test [1], 1360 nM. Turning to `Brc1c(Br)c(Br)c2[nH]c(N3CCCC3)nc2c1Br` [Compound 18, 4,5,6,7-tetrabromo-2-(pyrrolidin-1-yl)-1H-benzo[d]imidazole], the figures for the IC50 (on PIM-1; in test [1]) were 13.3 nM and 7680 nM, respectively.

On to `Brc1c(Br)c(Br)c2[nH]c(Nc3ccncc3)nc2c1Br` [Compound 28, 4,5,6,7-tetrabromo-N-(pyridin-4-yl)-1H-benzo[d]imidazol-2-amine], for which, on PIM-1, the IC50 is 37 nM. For `Brc1c(Br)c(Br)c2[nH]c(NCCCN3CCCCC3)nc2c1Br` [Compound 59, 4,5,6,7-tetrabromo-N-(3-(piperidin-1-yl)propyl)-1H-benzo[d]imidazol-2-amine], the IC50 on PIM-1 came to 50.8 nM; in test [2], 3600 nM. Regarding `NCCCCNc1nc2c(Br)c(Br)c(Br)c(Br)c2[nH]1` [Compound 61, N-(4-aminobutyl)-4,5,6,7-tetrabromo-1H-benzo[d]imidazol-2-amine], the IC50 on PIM-1 was 8.85 nM; in test [3] it was 8330 nM; in test [2], 7350 nM. Consider `Brc1c(Br)c(Br)c2[nH]c(NCC3CCNCC3)nc2c1Br` [Compound 67, 4,5,6,7-tetrabromo-N-((piperidin-4-yl)methyl)-1H-benzo[d]imidazol-2-amine], for which, on PIM-1, the IC50 was found to be 65.2 nM. With `Brc1c(Br)c(Br)c2[nH]c(Nc3ccccc3)nc2c1Br` [Compound 79, 4,5,6,7-tetrabromo-N-phenyl-1H-benzo[d]imidazol-2-amine], the values for the IC50 (on PIM-1; in test [2]) were 68.2 nM and 6520 nM, respectively.

With `Brc1c(Br)c(Br)c2[nH]c(NCc3ccccc3)nc2c1Br` [Compound 82, N-benzyl-4,5,6,7-tetrabromo-1H-benzo[d]imidazol-2-amine], on PIM-1, the IC50 is 200 nM. On to `Nc1ccc(Nc2nc3c(Br)c(Br)c(Br)c(Br)c3[nH]2)cc1` [Compound 86, N1-(4,5,6,7-tetrabromo-1H-benzo[d]imidazol-2-yl)benzene-1,4-diamine], for which the IC50 on PIM-1 stood at 66 nM.

For `NCC(O)CNc1nc2c(Br)c(Br)c(Br)c(Br)c2[nH]1` (stereo not drawn) [Compound 90, 1-(4,5,6,7-tetrabromo-1H-benzo[d]imidazol-2-ylamino)-3-aminopropan-2-ol], the IC50 at PIM-1 worked out at 13.1 nM; in test [3], 6520 nM; in test [2], 3980 nM. For the molecule `CN(C)CCN(Cc1ccccc1)c1nc2c(Br)c(Br)c(Br)c(Br)c2n1Cc1ccccc1` [Compound 95, N,1-dibenzyl-4,5,6,7-tetrabromo-N-(2-(dimethylamino)ethyl)-1H-benzo[d]imidazol-2-amine], the IC50 at PIM-1 came out at 75.7 nM; in test [1] it was 7610 nM.

With `CN(Cc1ccccc1)c1nc2c(Br)c(Br)c(Br)c(Br)c2[nH]1` [Compound 117, N-benzyl-4,5,6,7-tetrabromo-N-methyl-1H-benzo[d]imidazol-2-amine], the IC50 amounted to 85.6 nM at PIM-1 and 9400 nM in test [1]. For `Brc1c(Br)c(Br)c2[nH]c(NCCc3ccccn3)nc2c1Br` [Compound 128, 4,5,6,7-tetrabromo-N-(2-(pyridin-2-yl)ethyl)-1H-benzo[d]imidazol-2-amine], the values for the IC50 (at PIM-1; in test [1]) were 71.3 nM and 3830 nM, respectively. On to `Cc1c(Nc2nc3c(Br)c(Br)c(Br)c(Br)c3[nH]2)cccc1-c1nncn1C` [Compound 248, 4,5,6,7-tetrabromo-N-(2-methyl-3-(4-methyl-4H-1,2,4-triazol-3-yl)phenyl)-1H-benzo[d]imidazol-2-amine], for which the IC50 on PIM-1 stood at 48.9 nM. Regarding `Cc1nccn1CC1CCCN(c2nc3c(Br)c(Br)c(Br)c(Br)c3[nH]2)C1` (stereo not drawn) [Compound 262, 4,5,6,7-tetrabromo-2-(3-((2-methyl-1H-imidazol-1-yl)methyl)piperidin-1-yl)-1H-benzo[d]imidazole], at PIM-1, the IC50 was determined as 61.4 nM.

For `Brc1c(Br)c(Br)c2[nH]c(N3CCCC(CN4CCN(c5ccccn5)CC4)C3)nc2c1Br` (stereo not drawn) [Compound 266, 4,5,6,7-tetrabromo-2-(3-((4-(pyridin-2-yl)piperazin-1-yl)methyl)piperidin-1-yl)-1H-benzo[d]imidazole], the IC50 on PIM-1 turned out to be 294 nM; in test [1], 2550 nM; in test [2] it was 2480 nM. As to `Oc1ncc(Nc2nc3c(Br)c(Br)c(Br)c(Br)c3[nH]2)c(O)n1` [Compound 303, 5-(4,5,6,7-tetrabromo-1H-benzo[d]imidazol-2-ylamino)pyrimidine-2,4-diol], the IC50 on PIM-1 amounted to 128 nM.

As for `OC1CCCCC1Nc1nc2c(Br)c(Br)c(Br)c(Br)c2[nH]1` (stereo not drawn) [Compound 334, 2-(4,5,6,7-tetrabromo-1H-benzo[d]imidazol-2-ylamino)cyclohexanol], the IC50 stood at 14.1 nM on PIM-1 and 5340 nM in test [1].

On to `CN(c1ccccc1)c1nc2c(Br)c(Br)c(Br)c(Br)c2[nH]1` [Compound 342, 4,5,6,7-tetrabromo-N-methyl-N-phenyl-1H-benzo[d]imidazol-2-amine], for which the IC50 at PIM-1 was 28.6 nM. Turning to `CN(C)CCN1CCN(c2nc3c(Br)c(Br)c(Br)c(Br)c3[nH]2)CC1` [Compound 343, 2-(4-(4,5,6,7-tetrabromo-1H-benzo[d]imidazol-2-yl)piperazin-1-yl)-N,N-dimethylethanamine], the IC50 at PIM-1 was found to be 36.8 nM.

For `Brc1c(Br)c(Br)c2[nH]c(N3CCNc4ccccc43)nc2c1Br` [Compound 367, 1-(4,5,6,7-tetrabromo-1H-benzo[d]imidazol-2-yl)-1,2′,3,4-tetrahydroquinoxaline], the IC50 at PIM-1 stood at 39.5 nM; in test [1] it was 3770 nM.

For the origin of these results see patent US8604217B2, “Compound, a process for its preparation, a pharmaceutical composition, use of a compound, a method for modulating or regulating serine/threonine kinases and a serine/threonine kinases modulating agent” (Selvita S.A., priority 2009, dated 2013).
